Measurements published in US9051318B2, “Pyrido [2, 3-B] pyrazine compounds and their therapeutical uses such as for inhibiting ATP consuming proteins and treating diseases associated therewith” (Merck Patent GmbH, priority 2011, dated 2015).

Columns and labels:
[1] = tested on: TGF-beta-induced phosphorylation of Smad2 (Ser465/467) and Smad3 (Ser423/425) in Mv1-Lu cells; test: Inhibition of Smad2/3 phosphorylation in Mv1Lu cells (Example 10); assay type: cell-based, mink Mustela vison; details: Neogale vison, TGF-beta 1 5 ng/ml, phospho-Smad2/3 ELISA, read-out: TβR activity (Example 10)
Description: This assay was used to determine the inhibitory potency of compounds on TGF-beta-induced phosphorylation of Smad2 (Ser465/467) and Smad3 (Ser423/425). Mv1-Lu cells (lung epithelial cell line from mink Mustela vison; ATCC number: CCL-64) were seeded in DMEM (Invitrogen) supplemented with 10% fetal bovine serum (Pan Biotech) at a defined cell density in 24-well or 96-well plates (24-well plate: 1.5×10^5 cells per well; 96-well plate: 4×10^4 cells per well). Cell cultures were incubated in DMEM at 37° C. and 10% CO2. On the next day, the medium was replaced and cells were serum-starved for 16-20 hours. The following day, serial dilutions of compounds were added to the wells, pre-incubated for 1.5 hrs before recombinant TGF-beta 1 ligand (final concentration 5 ng/ml; R&D systems) was added. After one hour of ligand stimulation, lysates were prepared and analyzed using an enzyme-linked immunosorbent assay kit (PathScan Phospho-Smad2 Kit, Cell Signaling Technologies). The ELISA detects phosphorylated Smad2 as well as phosphorylated Smad3 with the phospho-specific antibody. TGF-beta stimulated cells and unstimulated cells served as positive and negative controls (100% and background control). The concentration of the vehicle DMSO was kept constant at 0.2% (v/v) in all wells. Dose-response relationships were fitted using curve fitting algorithms of the RS1 statistics software package (Brooks Automation Inc. RS/1—Statistical Tools Handbook. Release 6.2) to determine the concentration at which half-maximal inhibition (IC50) of Smad2/3 phosphorylation was achieved.

GST-ALK5 = target: T1, GST-ALK5 (Homo sapiens, UniProt P36897); test: In-vitro (enzyme) kinase flashplate assay, TGF-beta receptor kinase (Example 9); assay type: biochemical; details: GST-ALK5, GST-SMAD2 substrate, 3 mM ATP, 30° C. 45 min; read-out: TβR activity (Example 9)
T1 sequence (P36897 34-503): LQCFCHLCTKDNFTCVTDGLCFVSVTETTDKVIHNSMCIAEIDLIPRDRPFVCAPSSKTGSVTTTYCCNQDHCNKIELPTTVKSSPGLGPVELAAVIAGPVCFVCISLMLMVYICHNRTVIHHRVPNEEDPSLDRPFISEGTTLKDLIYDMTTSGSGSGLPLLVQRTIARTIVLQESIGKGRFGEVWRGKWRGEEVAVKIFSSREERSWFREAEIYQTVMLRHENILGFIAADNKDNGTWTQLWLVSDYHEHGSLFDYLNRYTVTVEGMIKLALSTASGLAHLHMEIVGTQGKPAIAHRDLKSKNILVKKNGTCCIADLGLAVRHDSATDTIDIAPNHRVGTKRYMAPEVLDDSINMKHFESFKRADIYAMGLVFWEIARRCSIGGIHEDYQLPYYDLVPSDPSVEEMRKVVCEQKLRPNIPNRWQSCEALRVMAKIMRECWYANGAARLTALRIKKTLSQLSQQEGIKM
Description: The kinase assay was carried out as 384-well flashplate assay. 31.2 nM of GST-ALK5, 439 nM of GST-SMAD2 and 3 mM of ATP (with 0.3 μCi of ^33P-ATP/well) were incubated in a total volume of 35 μl (20 mM of HEPES, 10 mM of MgCl2, 5 mM of MnCl2, 1 mM of DTT, 0.1% of BSA, pH 7.4) without or with test substance (5-10 concentrations) at 30° C. for 45 min. The reaction was stopped using 25 μl of 200 mM EDTA solution, filtered with suction at room temperature after 30 min, and the wells were washed with 3 times 100 μl of 0.9% NaCl solution. Radioactivity was measured in the TopCount. The IC50 values were calculated using RS 1.

Row | Compound | IC50 [1] | IC50 (GST-ALK5)
1 | Nc1nccc2c(-c3cc(-c4cc(Cl)ccc4F)nc4nccnc34)nccc12 [Compound 5, 5-[6-(5-Chloro-2-fluorophenyl)-pyrido[2,3-b]pyrazin-8-yl]-[2,6]naphthyridin-1-ylamine] | < 1000 nM | –
2 | Fc1ccc(Cl)cc1-c1cc(Nc2ccncc2)c2nccnc2n1 [Compound 2, [6-(5-Chloro-2-fluoro-phenyl)-pyrido[2,3-b]pyrazin-8-yl]-pyridin-4-yl-amine] | < 1000 nM | < 1000 nM
3 | OCCn1cc(-c2cncc(-c3cc(-c4ccccc4F)nc4nccnc34)c2)cn1 [Compound 12, 2-[4-[5-[6-(2-Fluorophenyl)pyrido [2,3-b]pyrazin-8-yl]-3-pyridyl]pyrazol-1-yl]ethanol] | < 1000 nM | < 1000 nM
4 | Cn1cc(-c2cncc(-c3cc(-c4ccccc4F)nc4nccnc34)c2)cn1 [Compound 10, 6-(2-Fluorophenyl)-8-[5-(1-methyl-1H-pyrazol-4-yl)-pyridin-3-yl]-pyrido[2,3-b] pyrazine] | < 1000 nM | < 1000 nM
5 | Nc1nccc2c(-c3cc(-c4ccccc4F)nc4nccnc34)nccc12 [Compound 3, 5-[6-(2-Fluorophenyl)-pyrido[2,3-b]pyrazin-8-yl]-[2,6]naphthyridin-1-ylamine] | < 1000 nM | < 1000 nM
6 | Nc1ncc(-c2cc(-c3ccccc3F)nc3nccnc23)c2ccncc12 [Compound 6, 4-[6-(2-Fluorophenyl)-pyrido[2,3-b]pyrazin-8-yl]-[2,7]naphthyridin-1-ylamine] | < 1000 nM | < 1000 nM
7 | Fc1ccccc1-c1cc(Nc2ccncc2)c2nccnc2n1 [Compound 1, [6-(2-Fluorophenyl)-pyrido[2,3-b]pyrazin-8-yl]-pyridin-4-yl-amine] | < 1000 nM | < 1000 nM
8 | Nc1nccc2c(-c3cc(-c4cc(F)ccc4F)nc4nccnc34)nccc12 [Compound 8, 5-[6-(2,5-Difluoro-phenyl)pyrido[2,3-b]pyrazin-8-yl]-2,6-naphthyridin-1-amine] | < 1000 nM | –
9 | CN1CCC(n2cc(-c3cncc(-c4cc(-c5ccccc5F)nc5nccnc45)c3)cn2)CC1 [Compound 9, 6-(2-Fluorophenyl)-8-{5-[1-(1-methyl-piperidin-4-yl)-1H-pyrazol-4-yl]-pyridin-3-yl}-pyrido[2,3-b] pyrazine] | < 1000 nM | < 1000 nM
10 | Nc1nccc2c(-c3cc(-c4ccccc4F)nc4nccnc34)cccc12 [Compound 4, 5-[6-(2-Fluorophenyl)-pyrido[2,3-b]pyrazin-8-yl]-isoquinolin-1-ylamine] | < 1000 nM | < 1000 nM
11 | Fc1ccc(Cl)cc1-c1cc(Nc2ccnc3ccoc23)c2nccnc2n1 [Compound 14, N-[6-(5-Chloro-2-fluorophenyl)pyrido [2,3-b]pyrazin-8-yl]furo[3,2-b]pyridin-7-amine] | < 1000 nM | < 1000 nM
